Measured values published in US20030232860A1, “Medicine comprising dicyanopyridine derivative” (priority 2000, published 2003).
Counter-ions that a name gives are not always drawn.

melting point	Compound
> 300 °C	COc1nc(N)c(C#N)c(-c2ccc(CN)cc2)c1C#N.Cl
176 to 178 °C	COc1nc(N)c(C#N)c(C2CCCNC2)c1C#N (stereo not drawn)
277 to 278 °C	CSc1nc(N)c(C#N)c(-c2cccc(N)c2)c1C#N.Cl
> 280 °C	Cl.Cl.N#Cc1c(NCCN)nc(NCCN)c(C#N)c1-c1ccccc1
285 to 288 °C (dec.)	Cl.Cl.N#Cc1c(N)nc(Sc2cccnc2)c(C#N)c1-c1cccc(N)c1
243 to 245 °C	CN(C)c1cccc(-c2c(C#N)c(N)nc(SCc3cccnc3)c2C#N)c1.Cl.Cl
156 to 158 °C	COc1nc(N(C(=O)Oc2ccccc2)C(=O)Oc2ccccc2)c(C#N)c(-c2ccccc2F)c1C#N
272 to 273 °C (dec.)	CSc1nc(N)c(C#N)c(-c2c[nH]cn2)c1C#N (as salt: HCl) (hydrate or solvate) [Example 82]
80 °C (dec.)	COc1nc(N)c(C#N)c(-c2ccnc(N)n2)c1C#N (as salt: HCl) (hydrate or solvate) [Example 174]
174 to 175 °C	N#Cc1c(N)nc(OCc2cccnc2)c(C#N)c1-c1ccccc1 (as salt: HCl) (hydrate or solvate) [Example 208, 2-amino-4-phenyl-6-(pyridin-3-ylmethoxy)pyridine-3,5-dicarbonitrile]
245 to 254 °C (dec.)	COc1nc(N)c(C#N)c(-c2ccc3cccnc3c2)c1C#N (as salt: HCl) [Example 172, 2-amino-6-methoxy-4-quinolin-7-ylpyridine-3,5-dicarbonitrile]
299 to 300 °C	COc1nc(N)c(C#N)c(-c2ccc3nc[nH]c3c2)c1C#N (as salt: HCl) [Example 173]
> 300 °C	N#Cc1c(N)nc(Oc2ccccc2CN)c(C#N)c1-c1ccccc1 (as salt: HCl) [Example 201, 2-amino-6-(2-aminomethylphenoxy)-4-phenylpyridine-3,5-dicarbonitrile]
260 to 263 °C (dec.)	N#Cc1c(N)nc(N2CCNCC2)c(C#N)c1-c1ccccc1 (as salt: HCl) [Example 210]
240 to 242 °C (dec.)	COc1nc(N)c(C#N)c(-c2cnc(N)s2)c1C#N (as salt: chloride) [Example 67, 2-amino-4-(2-aminothiazol-5-yl)-6-methoxypyridine-3,5-dicarbonitrile mono hydro chloride]
240 °C (dec.)	COc1nc(N)c(C#N)c(C2CCNCC2)c1C#N (as salt: hydrochloride) (hydrate or solvate)
161 to 162 °C	N#Cc1c(N)nc(OCCOC(=O)[C@@H](N)Cc2ccccc2)c(C#N)c1-c1ccccc1 (as salt: hydrochloride) (hydrate or solvate) [Example 15, 2-[(2-amino-3,5-dicyano-4-phenylpyridin-6-yl)oxy]ethyl (S)-2-amino-3-phenylpropanoate monohydrochloride monohydrate]
270 to 272 °C	COc1nc(N)c(C#N)c(-c2ccc3cc[nH]c3c2)c1C#N (as salt: salt) (hydrate or solvate) [Example 171]
132 to 133 °C	CCN(CC)CCOc1ccc(-c2c(C#N)c(N)nc(OC)c2C#N)cc1.Cl (hydrate or solvate)
108 to 109 °C	COCC(=O)Nc1nc(OCC(F)F)c(C#N)c(-c2ccccc2F)c1C#N (hydrate or solvate) [Example 61, N-[3,5-dicyano-6-(2,2-difluoroethoxy)-4-(2-fluorophenyl)pyridin-2-yl]-2-metho xyacetamide]
251 to 252 °C	COc1nc(N)c(C#N)c(-c2ccccc2)c1C#N [Example 2]
241 to 243 °C	CSc1nc(N)c(C#N)c(-c2ccsc2)c1C#N [Example 7, 2-amino-6-methylsulfanyl-4-(3-thienyl)pyridine-3,5-dicarbonitrile]
> 300 °C	N#Cc1c(N)nc(Cl)c(C#N)c1-c1ccccc1 [Example 9, 2-amino-6-chloro-4-phenylpyridine-3,5-dicarbonitrile]
212 to 214 °C	N#Cc1c(N)nc(OCCO)c(C#N)c1-c1ccccc1 [Example 13, 2-amino-6-(2-hydroxyethoxy)-4-phenylpyridine-3,5-dicarbonitrile]
161 to 162 °C	CC(C)Oc1nc(N)c(C#N)c(-c2ccccc2F)c1C#N [Example 18, 2-amino-4-(2-fluorophenyl)-6-isopropoxypyridine-3,5-dicarbonitrile]

melting point	Compound
230 to 233 °C	COc1nc(NC(C)=O)c(C#N)c(-c2cccs2)c1C#N [Example 19, N-(3,5-dicyano-6-methoxy-4-thiophen-2-ylpyridin-2-yl)acetamide]
> 300 °C	N#Cc1c(N)nc(O)c(C#N)c1-c1ccc(N)cc1 [Example 21, 2-amino-(4-aminophenyl)-6-hydroxypyridine-3,5-dicarbonitrile]
245 °C (dec.)	CSc1nc(O)c(C#N)c(-c2cccs2)c1C#N [Example 23, 2-hydroxy-6-methylsulfanyl-4-thiophen-2-ylpyridine-3,5-dicarbonitrile]
169 to 171 °C	CSc1nc(Br)c(C#N)c(-c2cccs2)c1C#N [Example 24, 2-bromo-6-methylsulfanyl-4-thiophen-2-ylpyridine-3,5-dicarbonitrile]
255 to 257 °C (dec.)	COc1nc(O)c(C#N)c(-c2ccccc2)c1C#N [Example 25, 2-hydroxy-6-methoxy-4-phenylpyridine-3,5-dicarbonitrile]
148 to 149 °C	COc1ncc(C#N)c(-c2ccccc2)c1C#N [Example 26, 2-methoxy-4-phenylylpyridine-3,5-dicarbonitrile]
288 to 290 °C	CSc1nc(N)c(C#N)c(-c2ccc(C(=O)O)cc2)c1C#N [Example 29, 4-(2-amino-3,5-dicyano-6-methylsulfanylpyridin-4-yl)benzoic acid]
284 to 286 °C	N#Cc1c(N)nc(Oc2cccc(C(=O)O)c2)c(C#N)c1-c1ccccc1 [Example 31, 3-[(6-amino-3,5-dicyano-4-phenylpyridin-2-yl)oxy]benzoic acid]
170 to 172 °C	COc1nc(OCCO)c(C#N)c(-c2ccccc2)c1C#N [Example 33, 2-(2-hydroxyethoxy)-6-methoxy-4-phenylpyridine-3,5-dicarbonitrile]
218.5 to 219.5 °C	COc1nc(N)c(C#N)c(-c2cccc(CO)c2)c1C#N [Example 34, 2-amino-4-[3-(hydroxymethyl)phenyl]-6-methoxypyridine-3,5-dicarbonitrile]
265 to 266 °C	COc1nc(N)c(C#N)c(-c2ccc(NS(C)(=O)=O)cc2)c1C#N [Example 38, N-[4-(2-amino-3,5-dicyano-6-methoxypyridin-4-yl)phenyl]methanesulfonamide]
> 300 °C	N#Cc1c(N)nc(N)c(C#N)c1-c1ccccc1 [Example 41, 2,6-diamino-4-phenylpyridine-3,5-dicarbonitrile]
156 to 158 °C	COc1nc(F)c(C#N)c(-c2ccccc2)c1C#N [Example 43, 2-fluoro-6-methoxy-4-phenylpyridine-3,5-dicarbonitrile]
233 to 235 °C	CS(=O)(=O)c1nc(N)c(C#N)c(-c2cccs2)c1C#N [Example 44, 2-amino-6-methanesulfonyl-4-thiophen-2-ylpyridine-3,5-dicarbonitrile]
> 250 °C	CSc1nc(NS(C)(=O)=O)c(C#N)c(-c2ccsc2)c1C#N [Example 45, N-(3,5-dicyano-6-methylsulfanyl-4-thiophen-3-ylpyridin-2-yl)methanesulfonamide]
298 to 299 °C	COc1nc(N)c(C#N)c(-c2cccc(C#N)c2)c1C#N [Example 49, 2-amino-4-(3-cyanophenyl)-6-methoxypyridine-3,5-dicarbonitrile]
137 to 138 °C	COc1nc(N(C(C)=O)C(C)=O)c(C#N)c(-c2ccccc2F)c1C#N [Example 59, 2-diacetylamino-4-(2-fluorophenyl)-6-methoxypyridine-3,5-dicarbonitrile]
168 to 169 °C	COCC(=O)Nc1nc(OC)c(C#N)c(-c2ccccc2F)c1C#N [Example 60, N-[3,5-dicyano-4-(2-fluorophenyl)-6-methoxypyridin-2-yl]-2-methoxyacetamide]
181 to 182 °C	COCC(=O)Nc1nc(OC)c(C#N)c(-c2c(F)cccc2F)c1C#N [Example 62, N-[3,5-dicyano-4-(2,6-difluorophenyl)-6-methoxypyridin-2-yl]-2-methoxyacetamide]
200 to 201 °C	COc1nc(NC(C)=O)c(C#N)c(-c2c(F)cccc2F)c1C#N [Example 63, N-[3,5-dicyano-4-(2,6-difluorophenyl)-6-methoxypyridin-2-yl]acetamide]
235 to 237 °C	COc1nc(N)c(C#N)c(-c2cc[nH]c2)c1C#N [Example 66, 2-amino-6-methoxy-4-(1H-pyrrol-3-yl)pyridine-3,5-dicarbonitrile]
142 to 145 °C	COc1nc(NC(=O)C(F)(F)F)c(C#N)c(-c2ccccc2F)c1C#N [Example 69, N-[3,5-dicyano-4-(2-fluorophenyl)-6-methoxypyridin-2-yl]-2,2,2-trifluoroacetamide]
203 to 204 °C	COc1nc(NC(=O)C2CC2)c(C#N)c(-c2ccccc2F)c1C#N [Example 70, N-[3,5-dicyano-4-(2-fluorophenyl)-6-methoxypyridin-2-yl] cyclopropanecarboxamide]
82 to 86 °C	COc1nc(NC(=O)N(C)C)c(C#N)c(-c2ccccc2F)c1C#N [Example 71, 3-[3,5-dicyano-4-(2-fluorophenyl)-6-methoxypyridin-2-yl]-1,1-dimethylurea]
160 to 161 °C	CCC(=O)N(C(=O)CC)c1nc(OC)c(C#N)c(-c2ccccc2F)c1C#N [Example 73, 2-dipropanoylamino-4-(2-fluorophenyl)-6-methoxypyridine-3,5-dicarbonitrile]

Compound	melting point
COc1nc(N)c(C#N)c(-c2ccc(N)cc2)c1C#N.Cl.O (hydrate or solvate) [Example 20, 2-amino-(4-aminophenyl)-6-methoxypyridine-3,5-dicarbonitrile monohydrochloride monohydrate]	> 300 °C
